Assay results from patent publication US11446299B2, “Carbazole EHop-016 derivatives as anticancer and anti-migratory agents” (UNIVERSITY OF PUERTO RICO, priority 2017, dated 2022).

How the values were obtained:
[1] = system: MCF-7 cancer cells; assay: Sulforhodamine B (SRB) growth inhibition assay; type: cell-based; conditions: Homo sapiens, MCF7, 24 h treatment, mean of triplicate, SD <10%
Protocol: Various compounds were tested to evaluate the dose response curve for effect on MCF-7 cancer cells and MDA-MB-231 cancer cells. MCF-7 and MDA-MB-231 cells were cultured in 10% Minimum Essential Medium Eagle (MEME) supplemented with Earle's Balanced Salt Solution (EBSS), Non-essential Amino acids (NEAA), Sodium pyruvate, Pen/Strep, L-glutamine and Fetal Bovine Serum (FBS) at 37° C. in 5% CO2.
Sulforhodamine B (SRB) Assay: A stock solution of compounds was prepared at 50 mM in 100% DMSO. For cells preparation, a flask of 75 cm^2 or 25 cm^2 were used for 2.6×10^5 cells or 1.44×10^5 cells respectively with an 80-90% of confluence. Cells were washed with PBS and trypsinized. The concentration of cells was determined using a 1:2 dilutions with Trypan Blue and a hemocytometer. After cell count, the concentration was adjusted to have a 1.9×10^4 cells/well. Approximately […] of cells suspension, compounds, control positive and control negative were added in triplicates to a 96 well plate. Positive controls used were ellipticine, doxorubicin, and/or vincristine, and the negative control was DMSO 0.1%. All compounds at 50, 25, 12.5, 6.3, and 1.6 μM were incubated with cells at 37° C. for 24 hrs. For fixation, cold TCA 50% was used and incubated at 4° C. for 1 hr. Wells were washed and dried prior to tincture with 100 μL of SRB 0.4%. To remove excess of SRB, acetic acid was used. For analysis, TRIS-BASE Solution (pH=10.5) was used and shacked prior to reading using an ELISA reader at 510 nm and the software SoftMax Pro 4.8.
For each compound, 50% growth inhibition (GI50) was calculated from Sigmoidal dose-response curves (variable-slope) that were generated with data obtained from experiments carried out in triplicates (GI50 values were generated with GraphPad Prism V. 6.02, GraphPad Software, Inc.). The results are presented in FIGS. 4A-4B (MCF-7 cancer cells) and FIGS. 5A-5B (MDA-MB-231 cancer cells).

[2] = HV-118 toxicity assessment in mice; type: in vivo; conditions: 1 mg/kg BW
Protocol: FIG. 19 (A-C). HV-118 toxicity assessment. Blood collected at necropsy was used for FIG. 19A. complete blood count (CBC) analysis and FIG. 19B. determination of serum levels of liver enzymes Alanine Aminotranferase (ALT), Aspartate Aminotransferse (AST), and Alkaline phosphatase (ALP). N=4-5 mice/group; error bars represent ±SEM. FIG. 19C. Average mouse weight as a function of days following HV-118 administration. N=13-15 mice/group.
An in vivo study was performed to assess HV-118 toxicity and test its effects in mammary tumor growth and metastasis. Immunocompromised mice were inoculated with green fluorescent protein (GFP)-tagged MDA-MB-231 cells. After tumors reached an average size of 80 mm^3, mice (n=15/group) were administered with control or HV-118 at 1 mg/kg body weight (BW) by intraperitoneal (i.p.) injection every day from Monday to Friday for approximately 2 months. The effects of HV-118 on tumor growth were monitored weekly by in situ fluorescence image analysis (starting from day 1 of treatment). Mammary tumor growth was quantified using Image J software, as the pixel intensity (integrated density) determined from digital tracing of the fluorescent tumor area at each imaging session and calculated as a function of the fluorescence intensity on day one of treatment. At necropsy, blood was collected, and organs were dissected and stored in liquid nitrogen. Metastatic foci were quantified for fluorescence intensity and area of fluorescence (lesion size) for each organ by Image J analysis of digital images from a fluorescence stero microscope. […] Toxicity was assessed by: 1) performing a hematologic profile (complete blood count (CBC) analysis), 2) measuring serum levels of liver enzymes Alanine Aminotranferase (ALT), Aspartate Aminotransferse (AST), and Alkaline phosphatase (ALP), and 3) monitoring animal weight throughout the study.

GI50 [1]	Structure (SMILES)	toxicity at the tested dose [2]	hematologic profile (complete blood count) ([2]; blood at necropsy)	serum levels of ALT, AST, or ALP ([2]; blood at necropsy)	mice weights ([2]; throughout the study)
> 50 µM	CCn1c2ccccc2c2cc(C(=O)Nc3cccnc3N3CCOCC3)ccc21 [Compound 11b, 9-Ethyl-9H-carbazole-3-carboxylic Acid (2-morpholin-4-yl-pyridin-3-yl)-amide]	–	–	–	–
–	CCn1c2ccccc2c2cc(Nc3cc(C)nc(Cl)n3)ccc21 [HV-118, (2-Chloro-6-methyl-pyrimidin-4-yl)-(9-ethyl-9H-carbazol-3-yl)-amine]	no toxicity	no changes	no changes	no changes
